For 9 molecules, GI50 and TGI results are on record in PubChem BioAssay (NCI).

Test systems include 786-0 renal; COLO 205 colon; EKVX NSCLC; K-562 leukemia; MDA-MB-231 breast; NCI-H460 lung; OVCAR-5 ovarian; OVCAR-8 ovarian; SNB-75 CNS; SW-620 colon.
Assay in all cases: growth of human tumour cells (NCI), 48 h

Values joined by “and” are separate entries in the source; they are usually repeats but may differ in a detail not shown here. Equal values may be shown once.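 These data come from cells grown in 96-well plates and exposed to compound for 48 hours at five concentrations. At the GI50, growth is halved. The concentration for full growth arrest is given as TGI.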

On to `COc1ccc(Nc2cc(C)nc(NCc3ccccc3)n2)cc1`, for which the GI50 with 786-0 renal is 3.49 µM; with COLO 205 colon, 2.08 µM; with EKVX NSCLC, 3.3 µM; in the assay on K-562 leukemia, 2.69 µM; in the assay on MDA-MB-231 breast, 3.45 µM; in the assay on NCI-H460 lung, 4.09 µM. Further, the GI50 with OVCAR-5 ovarian was 5.31 µM; in the assay on OVCAR-8 ovarian it was 6.71 µM; with SNB-75 CNS it was 4.65 µM; with SW-620 colon, 4.2 µM. For the same molecule, the TGI with 786-0 renal came to 17.6 µM; in the assay with COLO 205 colon it was 4.4 µM; in the assay with EKVX NSCLC, 18.6 µM; with K-562 leukemia, 15.3 µM; in the assay on MDA-MB-231 breast, 16.1 µM; in the assay on NCI-H460 lung, 17.6 µM. Also, the TGI in the assay on OVCAR-5 ovarian came out at 20.1 µM; in the assay with OVCAR-8 ovarian it was 35.2 µM; with SNB-75 CNS, 18.8 µM; in the assay on SW-620 colon, 20 µM.

On to `O=[N+]([O-])c1ccc(C2=Nn3c(nnc3-c3ccc(Cl)cc3)SC2)o1`, for which the TGI turned out to be 23 µM in the assay on 786-0 renal; 4.31 µM in the assay on COLO 205 colon; 23.9 µM in the assay on EKVX NSCLC; 4.89 µM with K-562 leukemia; 10.1 µM in the assay with MDA-MB-231 breast; 17.7 µM with NCI-H460 lung. Further, the TGI was found to be 33.8 µM in the assay on OVCAR-5 ovarian, 26.3 µM in the assay with OVCAR-8 ovarian, 32 µM in the assay with SNB-75 CNS and 5.85 µM in the assay on SW-620 colon.

Turning to `CC1=CCCC2C1(C)CCC(C)C2(C)Cc1cc(O)ccc1O` (configuration not stated), the TGI with 786-0 renal is 20.3 µM; in the assay with COLO 205 colon it was 34.9 µM and 32.1 µM; with EKVX NSCLC, 22 µM and 18.8 µM; in the assay with K-562 leukemia, 40.8 µM and 19.9 µM; with MDA-MB-231 breast, 21.5 µM; in the assay with NCI-H460 lung, 28.9 µM and 20.5 µM. The TGI in the assay with OVCAR-5 ovarian is 28.7 µM and 38.9 µM; with OVCAR-8 ovarian, 16.7 µM and 17.7 µM; in the assay with SNB-75 CNS, 20.5 µM and 21.7 µM; in the assay with SW-620 colon, 33.3 µM and 23.3 µM. The GI50 in the assay with EKVX NSCLC was 7.71 µM; with K-562 leukemia, 5.44 µM; in the assay with NCI-H460 lung, 7.19 µM; with SW-620 colon it was 12.9 µM.

Take `C[C@@H]1CCC([C@@H](C)[C@H]2CC[C@H]3[C@@H]4CC[C@H]5C[C@@H](O)CC[C@]5(C)[C@H]4CC[C@]23C)=NC1`: the TGI with 786-0 renal was over 56.2 µM; in the assay on COLO 205 colon, over 53.2 µM; in the assay with EKVX NSCLC it was over 100 µM; in the assay with K-562 leukemia, over 100 µM; with MDA-MB-231 breast, over 84.6 µM; in the assay on NCI-H460 lung, 48.9 µM. In addition, the TGI was over 100 µM in the assay with OVCAR-5 ovarian, over 100 µM in the assay with OVCAR-8 ovarian, over 71 µM with SNB-75 CNS and over 100 µM in the assay with SW-620 colon.

Take `COC(=O)C1=CO[C@@H](OC2OC(CO)C(O)C(O)C2O)[C@H]2[C@@H](C)[C@@H](O)[C@@H](O)[C@@H]12` (some centres not stated): the TGI with 786-0 renal, in the assay on COLO 205 colon, with EKVX NSCLC, with MDA-MB-231 breast, in the assay on OVCAR-5 ovarian and with OVCAR-8 ovarian was over 100 µM each time. The TGI with SNB-75 CNS and in the assay with SW-620 colon was over 100 µM each time.

With `N=C(N)SCc1c2ccccc2c(CSC(=N)N)c2ccccc12`, the GI50 with 786-0 renal is 9.35 µM; with COLO 205 colon, 2.75 µM; in the assay with EKVX NSCLC, 13.4 µM; in the assay with K-562 leukemia, 3.51 µM; in the assay on MDA-MB-231 breast, 12 µM; in the assay with NCI-H460 lung it was 1.08 µM. Moreover, the GI50 is 14.8 µM in the assay with OVCAR-5 ovarian, 6.49 µM with OVCAR-8 ovarian, 12.2 µM with SNB-75 CNS and 3.75 µM with SW-620 colon. Further, the TGI in the assay on 786-0 renal worked out at 24 µM; in the assay with COLO 205 colon, 14.1 µM; in the assay on EKVX NSCLC it was 51.6 µM; in the assay with K-562 leukemia, 17.9 µM; with MDA-MB-231 breast it was 45.1 µM; in the assay with NCI-H460 lung, 15.3 µM. The TGI with OVCAR-5 ovarian amounted to 28.7 µM; with OVCAR-8 ovarian it was 50.4 µM; in the assay with SNB-75 CNS, 26.9 µM; with SW-620 colon, 19.7 µM.

`CN1CCC2(CC1)NC(=O)c1c(c3ccc(Cl)c(Cl)c3n1C)C2C#N` (configuration not stated): the GI50 with 786-0 renal was 10.1 µM; with COLO 205 colon, 1.8 µM; with EKVX NSCLC it was 12.4 µM; in the assay on K-562 leukemia, 5.76 µM; in the assay with MDA-MB-231 breast, 5.19 µM; in the assay on NCI-H460 lung, 2.75 µM. Also, the GI50 is 8.67 µM in the assay on OVCAR-5 ovarian, 10.4 µM in the assay with OVCAR-8 ovarian, 4.46 µM in the assay on SNB-75 CNS and 8.48 µM in the assay with SW-620 colon. Further, the TGI was 24 µM with 786-0 renal; 3.83 µM in the assay with COLO 205 colon; 41.1 µM in the assay with EKVX NSCLC; over 100 µM in the assay on K-562 leukemia; 15.2 µM with MDA-MB-231 breast; 14.3 µM with NCI-H460 lung. Further, the TGI came out at 24.3 µM in the assay with OVCAR-5 ovarian, 36.6 µM in the assay with OVCAR-8 ovarian, 18.8 µM with SNB-75 CNS and 33.3 µM in the assay on SW-620 colon.

As to `COc1cc2c(cc1Cc1cccc(Cl)c1F)c(=O)c(C(=O)O)cn2[C@@H](CO)C(C)C`, the GI50 in the assay on 786-0 renal was 3.55 µM; in the assay with COLO 205 colon, 2.64 µM; in the assay on EKVX NSCLC, 3.85 µM; in the assay on K-562 leukemia, 3.84 µM; in the assay with MDA-MB-231 breast, 3.84 µM; in the assay on NCI-H460 lung, 3.07 µM. Also, the GI50 with OVCAR-5 ovarian was 4.28 µM; in the assay with OVCAR-8 ovarian it was 3.03 µM; with SNB-75 CNS, 2.53 µM; with SW-620 colon, 3.57 µM. In addition, the TGI in the assay with 786-0 renal came to 14.9 µM; with COLO 205 colon, 6.29 µM; with EKVX NSCLC, 17.3 µM; in the assay with K-562 leukemia it was 16.3 µM; in the assay with MDA-MB-231 breast, 19.7 µM; in the assay on NCI-H460 lung, 10.6 µM. Also, the TGI with OVCAR-5 ovarian came to 15.4 µM; with OVCAR-8 ovarian, 11.8 µM; in the assay with SNB-75 CNS it was 13.7 µM; with SW-620 colon, 15 µM.

As for `COc1ccc(Cn2cc3c(c2-c2ccccc2)CCc2cnoc2-3)cc1OC`, the GI50 with 786-0 renal was 2.24 µM; with COLO 205 colon, 0.55 µM; with EKVX NSCLC, 1.66 µM; in the assay with K-562 leukemia, 0.33 µM; in the assay on MDA-MB-231 breast, 2.13 µM; in the assay with NCI-H460 lung, 0.457 µM. The GI50 with OVCAR-5 ovarian is 6.2 µM; with OVCAR-8 ovarian, 3.48 µM; with SNB-75 CNS, 0.669 µM; in the assay on SW-620 colon, 0.455 µM. Besides, the TGI with 786-0 renal is over 100 µM; with COLO 205 colon it was 3.81 µM; with EKVX NSCLC, over 100 µM; in the assay on K-562 leukemia it was over 100 µM; in the assay with MDA-MB-231 breast, over 100 µM; with NCI-H460 lung it was over 100 µM. Further, the TGI with OVCAR-5 ovarian is over 100 µM; in the assay on OVCAR-8 ovarian, over 100 µM; in the assay with SNB-75 CNS it was 5.26 µM; with SW-620 colon, over 100 µM.
